Laboratory results taken from patent US7410963B2, “Benzo-1,4-diazepin-2-one derivatives as phosphodiesterase PDE2 inhibitors, preparation and therapeutic use thereof” (VIA Pharmaceuticals, Inc., priority 2003, dated 2008).
pIC50: −log10 of the molar value. Read-outs that look alike come from different tables or passages of the source.

Experiments:
PDE2 = molecular target: T1, PDE2 (Bos taurus, UniProt P14099); assay: Radioenzymatic phosphodiesterase assay: PDE2 inhibition; type: biochemical, bovine; details: read-out: PDE2 percentage of inhibition at 10 μM
T1 sequence (P14099 1-921): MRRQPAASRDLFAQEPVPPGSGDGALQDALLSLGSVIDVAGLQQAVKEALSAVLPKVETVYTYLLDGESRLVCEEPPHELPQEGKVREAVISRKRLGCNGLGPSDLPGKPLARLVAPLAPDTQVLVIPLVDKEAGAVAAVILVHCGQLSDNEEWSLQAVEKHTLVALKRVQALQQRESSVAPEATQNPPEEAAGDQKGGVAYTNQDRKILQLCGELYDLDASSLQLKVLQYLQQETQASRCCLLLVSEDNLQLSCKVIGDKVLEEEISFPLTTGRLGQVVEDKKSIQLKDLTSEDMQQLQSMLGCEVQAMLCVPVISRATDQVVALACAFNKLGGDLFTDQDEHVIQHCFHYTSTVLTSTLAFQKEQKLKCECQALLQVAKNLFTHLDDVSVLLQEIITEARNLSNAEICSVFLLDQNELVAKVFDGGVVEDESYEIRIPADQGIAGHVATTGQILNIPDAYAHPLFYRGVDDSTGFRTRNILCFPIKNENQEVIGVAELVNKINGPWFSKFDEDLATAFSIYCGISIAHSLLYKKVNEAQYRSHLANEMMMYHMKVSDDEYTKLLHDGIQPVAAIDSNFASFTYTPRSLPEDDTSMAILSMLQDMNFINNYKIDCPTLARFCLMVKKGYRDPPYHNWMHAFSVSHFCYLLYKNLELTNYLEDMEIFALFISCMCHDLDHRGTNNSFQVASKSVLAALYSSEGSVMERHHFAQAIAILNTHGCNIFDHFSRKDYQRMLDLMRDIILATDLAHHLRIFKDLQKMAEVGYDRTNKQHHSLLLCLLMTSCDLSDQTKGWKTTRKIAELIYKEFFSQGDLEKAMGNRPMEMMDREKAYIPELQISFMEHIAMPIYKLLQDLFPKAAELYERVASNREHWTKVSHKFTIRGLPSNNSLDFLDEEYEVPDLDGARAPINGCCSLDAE
Protocol: Nucleoside radioactivity was determined by liquid scintillation.

PDE3 = assay: Radioenzymatic phosphodiesterase assay: PDE3 inhibition (selectivity); details: Table 2; 10 μM test compound; PDE3 of vascular smooth muscle
Protocol: (§1) 3 g of tunica media from bovine aorta was cut in small piece and homogenized in a glass potter with 7 volumes/weight of buffer A containing protease inhibitors cocktails (20 mM Tris-HCl, 0.25 M saccharose, 2 mM magnesium acetate, 1 mM dithiothreitol, 5 mM EGTA, 2000 U/ml aprotinine, 10 mg/l leupeptine, 10 mg/l of soybean chemotrypsin inhibitor). The homogenate was centrifuged at 875000 g for 1 h and the surpernant was then transferred in DEAE-Sephacel (15×1.6 cm). The column was equilibrated beforehand with a buffer B (buffer A without saccharose, d'EGTA and protease inhibitors). […] Fractions were aliquoted and stored at −80° C. until further use.
(§2) The monophosphated adenosine or guanosine released by the hydrolysis of tritiated cyclic nucleotides was transformed into tritiated adenosine or guanosine by excess of nucleotidase. The obtained nucleoside was separated from nucleotides by anion exchange chromatography. Nucleoside radioactivity was determined by liquid scintillation.
(§3) The phosphodiesterase inhibitory activity of compounds was evaluated on other isoforms of phosphodiesterases such as PDE3, and PDE4 of vascular smooth muscle.

PDE4 = assay: Radioenzymatic phosphodiesterase assay: PDE4 inhibition (selectivity); details: Table 2, PDE4 of vascular smooth muscle; for PDE4 percentage of inhibition at 10 μM: 10 μM test compound
Protocol: as §1, §2, §3

| Compound | inhibition at 10 µM (PDE2; Table 1, 10 μM test compound) [%] | PDE3 percentage of inhibition at 10 μM (PDE3) [%] | PDE4 percentage of inhibition at 10 μM (PDE4) [%] | inhibition at 10 µM (PDE2) [%] | pIC50 (PDE4; read-out: PDE4 IC50) |
| --- | --- | --- | --- | --- | --- |
| COc1ccccc1-c1cc2c(cc1OC)N(C)C(=O)CN=C2c1cccc(C(N)=O)c1 [Example 21, 3-[8-Methoxy-7-(2-methoxy-phenyl)-1-methyl-2-oxo-2,3-dihydro-1H-benzo[e][1,4]diazepin-5-yl]-benzamide] | 98 | 9 | 18 | – | – |
| COc1ccc(-c2cc3c(cc2OC)N(C)C(=O)CN=C3c2cccc(C(N)=O)c2)cc1 [Example 22, 3-[8-Methoxy-7-(4-methoxy-phenyl)-1-methyl-2-oxo-2,3-dihydro-1H-benzo[e][1,4]diazepin-5-yl]-benzamide] | 99 | 22 | 50 | – | – |
| COc1cc2c(cc1-c1ccccc1Cl)C(c1cccc(C(N)=O)c1)=NCC(=O)N2C [Example 23, 3-[7-(2-Chloro-phenyl)-8-methoxy-1-methyl-2-oxo-2,3-dihydro-1H-benzo[e][1,4]diazepin-5-yl]-benzamide] | 95 | 25 | 20 | – | – |
| COc1ccc(OC)c(-c2ccc3c(c2)C(c2cccc(C(N)=O)c2)=NCC(=O)N3C)c1 [Example 31, 3-[7-(2,5-Dimethoxy-phenyl)-1-methyl-2-oxo-2,3-dihydro-1H-benzo[e][1,4]diazepin-5-yl]-benzamide] | 99 | 0 | 25 | – | – |
| COc1cccc(OC)c1-c1ccc2c(c1)C(c1cccc(C(N)=O)c1)=NCC(=O)N2C [Example 32, 3-[7-(2,6-Dimethoxy-phenyl)-1-methyl-2-oxo-2,3-dihydro-1H-benzo[e][1,4]diazepin-5-yl]-benzamide] | 100 | 0 | 27 | – | – |
| COc1ccc(C2=NCC(=O)N(C)c3ccc(-c4c(OC)cccc4OC)cc32)cc1 [Example 75, 7-(2,6-Dimethoxy-phenyl)-5-(4-methoxy-phenyl)-1-methyl-1,3-dihydro-benzo[e][1,4]diazepin-2-one] | 99 | 4 | 78 | – | – |
| COc1cc2c(cc1-c1c(OC)cccc1OC)C(c1cccc(C(N)=O)c1)=NCC(=O)N2C [Example 92, 3-[7-(2,6-Dimethoxy-phenyl)-8-methoxy-1-methyl-2-oxo-2,3-dihydro-1H-benzo[e][1,4]diazepin-5-yl]-benzamide] | 97 | 52 | 23 | – | – |
| COc1cc2c(cc1-c1ccccc1Oc1ccccc1)C(c1cccc(C(N)=O)c1)=NCC(=O)N2C [Example 93, 3-[8-Methoxy-1-methyl-2-oxo-7-(2-phenoxy-phenyl)-2,3-dihydro-1H-benzo[e][1,4]diazepin-5-yl]-benzamide] | 98 | 72 | 56 | – | – |
| COc1cccc(OC)c1-c1ccc2c(c1)C(c1ccc(F)cc1)=NCC(=O)N2C [Example 100, 7-(2,6-Dimethoxy-phenyl)-5-(4-fluoro-phenyl)-1-methyl-1,3-dihydro-benzo[e][1,4]diazepin-2-one] | – | 0 | 77 | 96 | – |
| COCCCc1cccc(C2=NCC(=O)N(C)c3cc(OC)c(-c4ccccc4)cc32)c1 [Example 103, 8-Methoxy-5-[3-(3-methoxy-propyl)-phenyl]-1-methyl-7-phenyl-1,3-dihydro-benzo[e][1,4]diazepin-2-one] | 96 | – | – | – | – |
| COc1cc2c(cc1-c1ccccc1)C(c1ccccc1Br)=NCC(=O)N2C [Example 104, 5-(2-Bromo-phenyl)-8-methoxy-1-methyl-7-phenyl-1,3-dihydro-benzo[e][1,4]diazepin-2-one] | 71 | – | – | – | – |
| CCCCC#Cc1ccc(C2=NCC(=O)N(C)c3cc(OC)c(-c4ccccc4)cc32)cc1 [Example 105, 5-(4-Hex-1-ynyl-phenyl)-8-methoxy-1-methyl-7-phenyl-1,3-dihydro-benzo[e][1,4]diazepin-2-one] | – | – | – | 42 | – |
| COCCCc1ccc(C2=NCC(=O)N(C)c3cc(OC)c(-c4ccccc4)cc32)cc1 [Example 106, 8-Methoxy-5-[4-(3-methoxy-propyl)-phenyl]-1-methyl-7-phenyl-1,3-dihydro-benzo[e][1,4]diazepin-2-one] | – | – | – | 47 | – |
| COc1cc2c(cc1-c1ccccc1)C(c1ccc(CCCNC(=O)OC(C)(C)C)cc1)=NCC(=O)N2C [Example 107, {3-[4-(8-Methoxy-1-methyl-2-oxo-7-phenyl-2,3-dihydro-1H-benzo[e][1,4]diazepin-5-yl)-phenyl]-propyl}-carbamic acid tert-butyl ester] | – | – | – | 92 | – |
| COc1ccc(C2=NCC(=O)N(C)c3cc(OC)c(-c4ccccc4OC)cc32)cc1 [Example 108, 8-Methoxy-5-(4-methoxy-phenyl)-7-(2-methoxy-phenyl)-1-methyl-1,3-dihydro-benzo[e][1,4]diazepin-2-one] | – | – | – | 99 | – |
| COc1ccc(C2=NCC(=O)N(C)c3cc(OC)c(-c4c(OC)cccc4OC)cc32)cc1 [Example 109, 7-(2,6-Dimethoxy-phenyl)-8-methoxy-5-(4-methoxy-phenyl)-1-methyl-1,3-dihydro-benzo[e][1,4]diazepin-2-one] | 99 | 37 | 90 | – | 6.00 |
| COc1ccc(C2=NCC(=O)N(C)c3cc(OC)c(-c4cc(OC)ccc4OC)cc32)cc1 [Example 110, 7-(2,5-Dimethoxy-phenyl)-8-methoxy-5-(4-methoxy-phenyl)-1-methyl-1,3-dihydro-benzo[e][1,4]diazepin-2-one] | – | – | – | 99 | – |
| COc1ccc(C2=NCC(=O)N(C)c3cc(OC)c(-c4c(F)cccc4OC)cc32)cc1 [Example 111, 7-(2-Fluoro-6-methoxy-phenyl)-8-methoxy-5-(4-methoxy-phenyl)-1-methyl-1,3-dihydro-benzo[e][1,4]diazepin-2-one] | – | – | – | 99 | – |
| COc1ccc(C2=NCC(=O)N(C)c3cc(OC)c(-c4ccccc4Oc4ccccc4)cc32)cc1 [Example 112, 8-Methoxy-5-(4-methoxy-phenyl)-1-methyl-7-(2-phenoxy-phenyl)-1,3-dihydro-benzo[e][1,4]diazepin-2-one] | – | – | – | 99 | – |
| COc1cc2c(cc1-c1ccccc1)C(c1ccc(Br)cc1)=NCC(=O)N2C [Example 113, 5-(4-Bromo-phenyl)-8-methoxy-1-methyl-7-phenyl-1,3-dihydro-benzo[e][1,4]diazepin-2-one] | 94 | – | – | – | – |
| COc1cc2c(cc1-c1ccccc1)C(c1ccc(Br)cc1)=NCC(=O)N2 [Example 114, 5-(4-Bromo-phenyl)-8-methoxy-7-phenyl-1,3-dihydro-benzo[e][1,4]diazepin-2-one] | 72 | – | – | – | – |
| COc1cccc(OC)c1-c1ccc2c(c1)C(c1cccc(C)c1)=NCC(=O)N2C [Example 115, 7-(2,6-Dimethoxy-phenyl)-1-methyl-5-m-tolyl-1,3-dihydro-benzo[e][1,4]diazepin-2-one] | – | 3 | 42 | 96 | – |
